For one assay, the system named is COLO320DM cells. The experiment in a line: COLO320DM proliferation assay (CellTiter-Glo). The format is cell-based, human. The conditions noted are these: read-out: COLO320DM Proliferation Abs IC50. The method in brief: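 COLO320DM cells, 250 cells/well in RPMI-1640 with 4% FBS, attached 18-22 h, then exposed 96 h at 37 °C, 5% CO2 to 7-point 1/2 dilutions from 20 uM to 313 nM. Viability by CellTiter-Glo luminescence; IC50 derived from the dose curve.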
(In general: Cellular ATP, detected with luciferase, serves as a proxy for viable cell number.)

Assay [1] concerns the target T1, TCF/LEF luciferase reporter in DLD1 cells (Homo sapiens, UniProt P35222).
T1 sequence (P35222 2-781): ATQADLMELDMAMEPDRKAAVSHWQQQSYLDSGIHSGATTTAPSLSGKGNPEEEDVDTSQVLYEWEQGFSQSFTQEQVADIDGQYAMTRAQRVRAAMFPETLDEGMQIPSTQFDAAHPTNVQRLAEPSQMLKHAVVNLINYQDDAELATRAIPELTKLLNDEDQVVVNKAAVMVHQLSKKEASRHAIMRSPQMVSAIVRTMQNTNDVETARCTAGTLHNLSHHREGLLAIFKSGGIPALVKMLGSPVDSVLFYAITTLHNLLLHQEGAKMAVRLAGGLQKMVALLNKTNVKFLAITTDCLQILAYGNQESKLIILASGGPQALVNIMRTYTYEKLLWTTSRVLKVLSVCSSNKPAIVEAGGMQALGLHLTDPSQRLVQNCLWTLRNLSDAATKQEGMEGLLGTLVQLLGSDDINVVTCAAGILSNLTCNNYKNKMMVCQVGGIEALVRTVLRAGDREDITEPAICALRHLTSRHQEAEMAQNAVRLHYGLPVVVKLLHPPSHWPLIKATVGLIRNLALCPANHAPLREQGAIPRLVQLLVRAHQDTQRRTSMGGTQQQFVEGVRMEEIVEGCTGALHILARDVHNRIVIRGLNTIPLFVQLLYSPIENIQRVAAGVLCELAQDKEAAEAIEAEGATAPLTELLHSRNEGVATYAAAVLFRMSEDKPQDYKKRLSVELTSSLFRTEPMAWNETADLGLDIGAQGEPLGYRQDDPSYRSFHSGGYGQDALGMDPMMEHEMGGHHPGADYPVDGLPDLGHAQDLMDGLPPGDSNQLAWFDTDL
The experiment in a line: TCF reporter assay in DLD1 cells (4% or 20% FBS). The format is cell-based. In general terms: A reporter such as luciferase makes a cellular process visible.

Assay [2] concerns beta-catenin driven transcription in HAP1 WT cells. The experiment in a line: qPCR of beta-catenin driven transcription in HAP1 WT cells (CHIR treated). The format is cell-based. The conditions noted are these: 24-hour treatment. (In qPCR the cycle at which signal appears reflects the starting amount.)
For assay [3], the system named is HAP1 CTNNB1 knockout cells. The experiment in a line: qPCR in HAP1 beta-catenin KO cells. The format is cell-based.
Assay [4] addresses T2, full-length B-Catenin (Uniprot ID P35222) (Homo sapiens, UniProt P35222).
T2 construct: 10 nM full-length B-Catenin (Uniprot ID P35222)
T2 sequence (P35222 1-781): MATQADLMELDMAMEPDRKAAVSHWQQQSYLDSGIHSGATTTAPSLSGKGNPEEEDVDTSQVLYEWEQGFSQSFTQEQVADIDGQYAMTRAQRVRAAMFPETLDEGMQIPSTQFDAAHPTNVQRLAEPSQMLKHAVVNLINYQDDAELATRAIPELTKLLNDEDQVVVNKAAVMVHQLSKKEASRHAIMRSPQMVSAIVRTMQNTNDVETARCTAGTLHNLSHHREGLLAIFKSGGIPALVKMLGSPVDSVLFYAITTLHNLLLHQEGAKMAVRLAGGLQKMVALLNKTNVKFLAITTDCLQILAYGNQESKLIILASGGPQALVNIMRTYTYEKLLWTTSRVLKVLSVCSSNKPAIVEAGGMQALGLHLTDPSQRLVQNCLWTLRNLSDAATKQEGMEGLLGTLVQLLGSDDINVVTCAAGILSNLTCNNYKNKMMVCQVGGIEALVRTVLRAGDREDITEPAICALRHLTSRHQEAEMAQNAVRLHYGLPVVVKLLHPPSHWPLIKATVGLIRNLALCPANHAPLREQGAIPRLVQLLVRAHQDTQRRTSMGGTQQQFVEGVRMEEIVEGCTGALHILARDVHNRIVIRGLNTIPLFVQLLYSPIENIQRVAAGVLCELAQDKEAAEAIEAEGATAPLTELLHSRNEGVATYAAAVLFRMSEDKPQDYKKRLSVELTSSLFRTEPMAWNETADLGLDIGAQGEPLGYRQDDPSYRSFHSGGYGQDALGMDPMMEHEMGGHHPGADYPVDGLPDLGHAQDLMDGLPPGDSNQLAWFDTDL
The format is binding.

Assay [5] deals with T3, beta-catenin/TCF4 interaction (Homo sapiens, UniProt P35222).
T3 construct: host or cells: HEK293
T3 sequence (P35222 1-781): T2 sequence (P35222 1-781)
The format is cell-based. As to conditions: read-out: NanoBRET Abs IC50.

Where [6] appears, read: read-out: DLD1 4% Abs IC50, DLD1 TCF reporter, 4% FBS.
[7] abbreviates: read-out: DLD1 4% Abs IC50, DLD1 TCF reporter, 4% FBS, absolute IC50.
The mark [8] stands for this setting: read-out: beta-catenin TCF4 competition FP assay IC50.
Where [9] appears, read: read-out: beta-catenin TCF4 DLD1 cell reporter assay IC50.

Where two headings read alike, the source gives them in different places.

With “Ac-PL3-Asp-Npg-B5-Asp-3COOHF-Aib-Ala-Phe-Lys*3-PyrS2-2F3MeF-BztA-GlnR*3-Leu-Ser-NH2 [I-138]”, the IC50 in the assay with COLO320DM cells is at most 10000 nM; in assay [1] (setting [6]) it was at most 1000 nM. For the compound “Ac-PL3-Asp-Npg-B5-Asp-3COOHF-Ala-Ala-Phe-sAla*3-PyrS2-3Thi-BztA-TriAzLys*3-Ala-NH2 [I-338]”, the IC50 in assay [1] (setting [7]) is at most 1000 nM. In the case of “Ac-PL3-Glu-Npg-B5-Glu-3COOHF-Aib-Ala-Phe-Lys*3-PyrS2-2F3MeF-BztA-GlnR*3-Ala-NH2 [I-291]”, in assay [1] (setting [6]), the IC50 was in the range of 1000 to 5000 nM. For the compound “Ac-PL3-Asp-Npg-B5-Asp-TfeGA-Ala-Ala-Phe-Lys*3-PyrS2-2F3MeF-BztA-GlnR*3-Leu-NH2 [I-128]”, the IC50 in assay [1] (setting [6]) lay within 1000 to 5000 nM. The same measure, in the same setting: next, “Ac-PL3-aThr-Npg-B5-Asp-3COOHF-Aib-Ala-Phe-Lys*3-PyrS2-3Thi-BztA-GlnR*3-Ala-NH2 [I-163]”: over 5000 nM.

With “Ac-PL3-Asp-Npg-B5-Asp-3COOHF-Ala-Ala-Phe-Lys*3-PyrS2-3Thi-BztA-hGlnR*3-Ala-NH2 [I-183]”, the IC50 in assay [1] (setting [6]) was 1000 to 5000 nM. For `Cc1c[nH]c(-c2cnc(NCCNc3ccc(C#N)cn3)nc2-c2ccc(Cl)cc2Cl)n1` [CHIR, CHIR99021, reference compound], the beta-catenin protein levels result in assay [2] is given as “more than two-fold”. Moreover, in assay [3], the “expression of AXIN2, SP5, or RNF43” value is “neither CHIR nor peptide A and I-66 affected”. As to “Ac-PL3-Asp-Cha-B5-Asp-3COOHF-Ala-Ala-Phe-Lys*3-PyrS2-2F3MeF-BztA-GlnR*3-Leu-NH2 [I-106]”, in assay [1] (setting [6]), the IC50 is at most 1000 nM. On to “Ac-PL3-Asp-Npg-B5-Asp-3COOHF-Aib-Ala-Phe-Lys*3-PyrS2-3Thi-BztA-GlnR*3-Glu-Ala-NH2 [I-342]”, for which, in assay [1] (setting [7]), the IC50 is at most 1000 nM. “Ac-PL3-Asp-Npg-B5-Asp-3COOHF-Cpg-Ala-Phe-Lys*3-PyrS2-2F3MeF-BztA-GlnR*3-Leu-Ser-NH2 [I-139]”: the IC50 in assay [1] (setting [6]) was at most 1000 nM. On to “Ac-PL3-Asp-Npg-B5-Asp-3COOHF-Aib-Ala-Phe-[2_6-naph]Cys-PyrS2-3Thi-BztA-Cys-Ala-NH2 [I-566]”, for which the IC50 is 58 nM in assay [4] (setting [8]) and over 20000 nM in assay [1] (setting [9]). On to “Ac-PL3-Asp-Npg-B5-Asp-3COOHF-Ala-Aib-Phe-Lys*3-PyrS2-3Thi-BztA-GlnR*3-Ala-NH2 [I-442]”, for which the IC50 in assay [5] was over 10000 nM.

Regarding “Ac-PL3-Asp-Npg-B5-Asp-3COOHF-Ala-Ala-Phe-iPrLys*3-PyrS2-3Thi-BztA-hGlnR*3-Ala-NH2 [I-187]”, the IC50 in assay [1] (setting [6]) was over 5000 nM. For the compound “5hexenyl-MePro-Asp-AllylGly-R5-Asp-3COOHF-Aib-Ala-Phe-Lys*3-PyrS2-3Thi-BztA-GlnR*3-Ala-NH2 [I-430]”, in assay [5], the IC50 was over 10000 nM. As to “Ac-PL3-Asp-Npg-B5-Asp-3COOHF-Ala-Ala-Phe-Lys*3-PyrS2-3Thi-BztA-GlnR*3-Prool [I-64]”, the figures for the IC50 (in the assay with COLO320DM cells; in assay [1] (setting [6])) were 10000 to 20000 nM and 1000 to 5000 nM, respectively. For “Ac-PL3-Asp-Npg-B5-Asp-3COOHF-Ala-Ala-Phe-TriAzLys*3-PyrS2-3Thi-BztA-sAla*3-Ala-NH2 [I-337]”, the IC50 in assay [1] (setting [7]) is at most 1000 nM. On to “Ac-PL3-Asp-Npg-B5-Asp-3COOHF-Aib-Ala-Phe-sAla*3-PyrS2-3Thi-BztA-TriAzLys*3-Ala-NH2 [I-336]”, for which the IC50 in assay [1] (setting [7]) lay in the range of 1000 to 5000 nM. “Ac-PL3-Asp-Npg-B5-Asp-3COOHF-CyLeu-Ala-Phe-Lys*3-PyrS2-2F3MeF-BztA-GlnR*3-Leu-Ser-NH2 [I-141]”: the IC50 in assay [1] (setting [6]) is at most 1000 nM. Consider “Ac-PL3-Asp-Npg-B5-Asp-3COOHF-Npg-Ala-Phe-Lys*3-PyrS2-2F3MeF-BztA-GlnR*3-Ala-NH2 [I-99]”, for which the IC50 in assay [1] (setting [6]) was at most 1000 nM. With “Ac-PL3-Asp-Npg-B5-Asp-3COOHF-Aib-Ala-Phe-TriAzLys*3-PyrS2-3Thi-BztA-sCH2S*3-Ala-NH2 [I-262]”, the IC50 was at most 10000 nM with COLO320DM cells and at most 1000 nM in assay [1] (setting [6]). Consider “Ac-PL3-Asp-Npg-B5-Asp-3COOHF-Aib-Ala-Phe-[3_3-biph]Cys-PyrS2-3Thi-BztA-Cys-Ala-NH2 [I-567]”, for which the IC50 in assay [4] (setting [8]) was 120 nM; in assay [1] (setting [9]) it was over 20000 nM. With “Ac-PL3-Asp-Npg-B5-Asp-3COOHF-Aib-Ala-Phe-Lys*3-PyrS2-2F3MeF-BztA-GlnR*3-Ala-NH2 [I-69]”, the IC50 is at most 10000 nM in the assay on COLO320DM cells, under 50 nM in assay [4] (read-out: beta-Catenin FP IC50) and at most 1000 nM in assay [1] (setting [6]).

For the compound “Ac-PL3-Asp-Npg-B5-Asp-3COOHF-Npg-Ala-Phe-Lys*3-PyrS2-2F3MeF-BztA-GlnR*3-Leu-NH2 [I-109]”, the IC50 in assay [5] was over 10000 nM; in assay [1] (setting [6]), 1000 to 5000 nM. Turning to “Ac-PL3-Asp-Npg-B5-Asp-3COOHF-nLeu-Ala-Phe-Lys*3-PyrS2-3Thi-BztA-GlnR*3-Ala-NH2 [I-70]”, the IC50 is at most 10000 nM in the assay on COLO320DM cells and at most 1000 nM in assay [1] (setting [6]).
